Reference: patent US11510886B2, “Metformin amino acid compounds and methods of using the same” (Laboratorios Silancs S.A. DE C.V., priority 2016, dated 2022)
Read-outs that look alike come from different tables or passages of the source.

Columns and labels:
[1] = test system: rat model of streptozotocin-induced diabetes; settings: about 18 hours after last administration, fasted; Dunnet test
[2] = test system: rat model of streptozotocin-induced diabetes; experiment: Blood glucose levels in rat model of streptozotocin-induced diabetes, 14 days oral; settings: mean ± SD; for Blood glucose levels before TI/RI administration, Day −1: STZ-diabetic rats, before first TI/RI administration, n.d. = all values beyond ULOD of glucometer (600 mg/dl), § n=1, ¢ n=2; for Blood glucose levels before TI/RI administration, Day −3 (before STZ administration): rats, baseline before STZ and before first TI/RI administration
[3] = Mean ± SD; for Body weight (g) On distribution day: before dosing
[4] = rat, in vivo, po, 250 mg/kg
blood glucose level = experiment: Effect of metformin compounds on the glucokinetic profile after oral glucose overload; assay type: in vivo, Rat; settings: for Blood glucose level, 3 h post-glucose overload: *p<0.05, **p<0.01 vs vehicle
[5] = terms of European Pharmacopeia 7.0 section 5.11
[6] = STZ-diabetic male rats, mean ± SD; for Absolute body weight, Day −3 (before STZ administration): baseline before STZ and before first TI/RI administration; for Absolute body weight, Day −1 / Absolute body weight, Day −2 (distribution of groups): before first TI/RI administration
[7] = test system: GPBP, LKB1/STRADα/MO25, AMPK, AS160; experiment: In vitro phosphorylation of GPBP with LKB1 complex, AMPK and AS160; settings: LKB1 complex without GPBP
GLUT4 = experiment: GPBP-1 and GLUT4 distribution in C2C12 cells (FIGS. 77 and 78); assay type: cell-based, Mice
Description: FIG. 77. Effects of no treatment, insulin, SLN1, SLN1 and insulin, SLN10, and SLN10 and insulin on GPBP-1 and GLUT-4 distribution in non-fused C2C12 cells after a 30 minute treatment.
FIG. 78. C2C12 cells that expressed GLUT4-GFP constitutively were incubated with SLN1 or SLN10 10 mM, or with the corresponding vehicle (control), and GLUT4 distribution was analyzed by using immunofluorescence and confocal microscopy.

C2C12 myotubes = experiment: Glucose in C2C12 myotubes cultured with M1 macrophage conditioned medium; assay type: cell-based, Mice; settings: macrophages treated with 10 mM; glucose adjusted to 100 mg/100 mL (FIG. 95)
Description: FIG. 95. C2C12 myotubes, treated with a conditioned RAW264.7 M1 macrophages medium (stimulated with LPS and IFN-γ [M1]), accumulate glucose in the culture medium: SLN compounds reduce the “hyperglycemic” effect of the M1 medium. […]; then, the culture media were collected, and their glucose concentration adjusted to 100 mg/100 mL and used to culture C2C12 myoblasts that had been previously differentiated to myotubes in DMEM supplemented with 2% horse serum for 5 days. The glucose concentration in myotubes was determined at several times with a Glucocard (Arkray). C2C12 myotubes, cultured with conditioned media of non-stimulated (cells) macrophages, or similarly stimulated but not treated with a SLN (M1), were used as controls. The initial glucose levels (time 0) are used as a reference (100%) in each of the series.
[…]. Then the culture media were collected, their glucose concentration adjusted to 100 mg/100 mL and used to culture C2C12 myoblasts that had been previously differentiated to myotubes in DMEM supplemented with 2% horse serum for 5 days. The glucose concentration of the myotube cultures was determined at different times with Glucocard (Arkray). The controls used were the C2C12 cultured with media conditioned with no stimulated macrophages (cells) or with M1 conditioned media. The initial glucose levels (time 0) were used as a reference (100%) in each series.

[8] = Groups L-U, 750 mg/kg, first column of this head
[9] = Groups L-U, 750 mg/kg, second column of this head
[10] = rat, 750 mg/kg referred to metformin base, mean ± SD, *p<0.05 vs vehicle
[11] = rat, 750 mg/kg referred to metformin base, mean ± SD

Molecule	Blood glucose levels before TI/RI administration, Day −1 [2]	Blood glucose levels before TI/RI administration, Day −3 (before STZ administration) [2]	Body weight (g) On administration day ([3]; Groups B-K, 250 mg/kg)	Body weight (g) On distribution day ([3]; Groups B-K, 250 mg/kg)	Body weight (g) On distribution day ([3]; Groups L-U, 750 mg/kg)	Body weight (g) On first administration day [3, 8]	Body weight (g) On first administration day [3, 9]	AUC(0-24) [4]	Cmax [4]	Metformin base concentration in plasma, 0.5 h post-administration [4]	Metformin base concentration in plasma, 1 h post-administration [4]	Metformin base concentration in plasma, 2 h post-administration [4]	Metformin base concentration in plasma, 4 h post-administration [4]	Metformin base concentration in plasma, 8 h post-administration [4]	Metformin base concentration in plasma, 24 h post-administration [4]	Blood glucose level, 0.25 h post-glucose overload (blood glucose level; [10])	Blood glucose level, 0.5 h post-glucose overload (blood glucose level; [11])	Blood glucose level, 2 h post-glucose overload (blood glucose level; [11])	Blood glucose level, 3 h post-glucose overload (blood glucose level; [11])	GLUT4 distribution (GLUT4)	also measured
CN(C)C(=N)NC(=N)N.NC(=O)C[C@H](N)C(=O)O [Metformin asparaginate, metformin asparaginate]	573.00^§ ± n.d.^§ mg/dL	116.33 ± 5.51 mg/dL	191.98 ± 10.26 g	186.85 ± 11.32 g	188.40 ± 10.50 g	201.60 ± 5.61 g	196.93 ± 10.40 g	153.76 µg·h/mL	16.27 µg/mL	10.72 ± 2.33 µg/mL	8.40 ± 1.12 µg/mL	9.74 ± 1.24 µg/mL	16.27 ± 2.89 µg/mL	7.56 ± 1.49 µg/mL	0.39 ± 0.13 µg/mL	94.50 ± 24.31 mg/dL	93.75 ± 19.14 mg/dL	80.00 ± 10.68 mg/dL	86.50 ± 2.65 mg/dL	–	plasma glucose levels at the time of sacrifice [1]: significantly higher; blood glucose level vs vehicle, after the oral glucose overload (blood glucose level; 750 mg/kg for five days, glucose 3 g/kg, isolated time points 0.25-4 hours, Dunn's test): statistically significant decreases; Blood glucose level, 4 h post-glucose overload (blood glucose level; [10]): 87.00 ± 8.60 mg/dL; Blood glucose level, 6 h post-glucose overload (blood glucose level; [11]): 78.50 ± 16.03 mg/dL; Blood glucose level, pre-glucose overload (blood glucose level; [10]): 86.50 ± 14.62 mg/dL; Physical form (hygroscopicity) [5]: Deliquescent; Absolute body weight, Day −3 (before STZ administration) [6]: 233.47 ± 15.23 g; Absolute body weight, Day −1 [6]: 209.73 ± 12.66 g; Absolute body weight, Day −2 (distribution of groups) [6]: 214.13 ± 12.67 g
CN(C)C(=N)N=C(N)N [metformin, 3-(diaminomethylidene)-1,1-Dimethylguanidine]	–	–	–	–	–	–	–	–	–	–	–	–	–	–	–	–	–	–	–	levels lower than insulin	LKB1 autophosphorylation and STRADα phosphorylation [7]: trigger a discrete LKB1 autophosphorylation
Metformin glycinate	–	–	–	–	–	–	–	–	–	–	–	–	–	–	–	–	–	–	–	very intense accumulation of GLUT4 in the perinuclear region and in the plasma membrane	glucose concentration in myotubes kept in M1 macrophage-conditioned medium (C2C12 myotubes): kept values at “normoglycemic” levels
insulin: insulin, comparator for GLUT4 distribution	–	–	–	–	–	–	–	–	–	–	–	–	–	–	–	–	–	–	–	GLUT4 distribution to the cell membrane increased	–
metformin leucinate	563.00 ± 36.39 mg/dL	118.33 ± 10.02 mg/dL	195.70 ± 9.85 g	187.38 ± 6.74 g	185.53 ± 12.04 g	199.25 ± 9.43 g	193.53 ± 11.92 g	133.32 µg·h/mL	15.43 µg/mL	10.21 ± 1.77 µg/mL	15.43 ± 0.81 µg/mL	12.30 ± 2.41 µg/mL	12.57 ± 4.13 µg/mL	5.88 ± 0.80 µg/mL	0.21 ± 0.08 µg/mL	87.75 ± 31.40 mg/dL	90.75 ± 28.16 mg/dL	99.00 ± 2.45 mg/dL	91.75 ± 6.99 mg/dL	–	Blood glucose level, 1 h post-glucose overload (blood glucose level; rat, 750 mg/kg referred to metformin base, 1 h post-glucose overload, mean ± SD, *p<0.05 vs vehicle): 99.50 ± 27.50 mg/dL; Blood glucose level, 4 h post-glucose overload (blood glucose level; [10]): 89.75 ± 3.69 mg/dL; Blood glucose level, 6 h post-glucose overload (blood glucose level; [11]): 85.25 ± 2.22 mg/dL; Blood glucose level, pre-glucose overload (blood glucose level; [10]): 72.25 ± 9.29 mg/dL; Physical form (hygroscopicity) [5]: Deliquescent; Absolute body weight, Day −3 (before STZ administration) [6]: 234.57 ± 1.87 g; Absolute body weight, Day −1 [6]: 207.93 ± 0.99 g; Absolute body weight, Day −2 (distribution of groups) [6]: 221.90 ± 6.16 g
